Assay results published in ChEMBL document CHEMBL2202954, “The effect of PLC-γ2 inhibitors on the growth of human tumour cells” (2012).

Experiments:
Assay type in all cases: functional
[1] = tested on: SK-MEL-28; assay: Cytotoxicity against human SK-MEL-28 cells assessed as cellular growth at 10 uM by SRB assay
[2] = tested on: SK-MEL-5; assay: Cytotoxicity against human SK-MEL-5 cells assessed as cellular growth at 10 uM by SRB assay
[3] = tested on: NCI-H322M; assay: Cytotoxicity against human NCI-H322M cells assessed as cellular growth at 10 uM by SRB assay
[4] = tested on: SF-539; assay: Cytotoxicity against human SF539 cells assessed as cellular growth at 10 uM by SRB assay
[5] = tested on: MDA-MB-231; assay: Cytotoxicity against human MDA-MB-231 cells assessed as cellular growth at 10 uM by SRB assay
[6] = tested on: A549; assay: Cytotoxicity against human A549 cells assessed as cellular growth at 10 uM by SRB assay
[7] = tested on: MCF7; assay: Cytotoxicity against human MCF7 cells assessed as cellular growth at 10 uM by SRB assay
[8] = tested on: SW-620; assay: Cytotoxicity against human SW620 cells assessed as cellular growth at 10 uM by SRB assay
[9] = tested on: NCI-H226; assay: Cytotoxicity against human NCI-H226 cells assessed as cellular growth at 10 uM by SRB assay
[10] = tested on: HCT-116; assay: Cytotoxicity against human HCT116 cells assessed as cellular growth at 10 uM by SRB assay
[11] = Cytotoxicity against human NCI-ADR-RES cells assessed as cellular growth at 10 uM by SRB assay
[12] = tested on: SF-295; assay: Cytotoxicity against human SF295 cells assessed as cellular growth at 10 uM by SRB assay
[13] = tested on: MDA-MB-435; assay: Cytotoxicity against human MDA-MB-435 cells assessed as cellular growth at 10 uM by SRB assay
[14] = tested on: UO-31; assay: Cytotoxicity against human UO31 cells assessed as cellular growth at 10 uM by SRB assay
[15] = tested on: K562; assay: Cytotoxicity against human K562 cells assessed as cellular growth at 10 uM by SRB assay
[16] = tested on: TK-10; assay: Cytotoxicity against human TK10 cells assessed as cellular growth at 10 uM by SRB assay
[17] = tested on: KM12; assay: Cytotoxicity against human KM12 cells assessed as cellular growth at 10 uM by SRB assay
[18] = tested on: BT-549; assay: Cytotoxicity against human BT549 cells assessed as cellular growth at 10 uM by SRB assay
[19] = tested on: Malme-3M; assay: Cytotoxicity against human MALME-3M cells assessed as cellular growth at 10 uM by SRB assay
[20] = tested on: CAKI-1; assay: Cytotoxicity against human Caki1 cells assessed as cellular growth at 10 uM by SRB assay
[21] = tested on: MOLT-4; assay: Cytotoxicity against human MOLT4 cells assessed as cellular growth at 10 uM by SRB assay
[22] = tested on: RPMI-8226; assay: Cytotoxicity against human RPMI8226 cells assessed as cellular growth at 10 uM by SRB assay
[23] = tested on: NCI-H23; assay: Cytotoxicity against human NCI-H23 cells assessed as cellular growth at 10 uM by SRB assay
[24] = tested on: PC-3; assay: Cytotoxicity against human PC3 cells assessed as cellular growth at 10 uM by SRB assay
[25] = tested on: CCRF-CEM; assay: Cytotoxicity against human CCRF-CEM cells assessed as cellular growth at 10 uM by SRB assay
[26] = tested on: HT-29; assay: Cytotoxicity against human HT-29 cells assessed as cellular growth at 10 uM by SRB assay
[27] = tested on: OVCAR-3; assay: Cytotoxicity against human OVCAR3 cells assessed as cellular growth at 10 uM by SRB assay
[28] = tested on: T47D; assay: Cytotoxicity against human T47D cells assessed as cellular growth at 10 uM by SRB assay
[29] = tested on: OVCAR-8; assay: Cytotoxicity against human OVCAR8 cells assessed as cellular growth at 10 uM by SRB assay
[30] = tested on: M14; assay: Cytotoxicity against human M14 cells assessed as cellular growth at 10 uM by SRB assay
[31] = tested on: A498; assay: Cytotoxicity against human A498 cells assessed as cellular growth at 10 uM by SRB assay
[32] = tested on: SK-MEL-2; assay: Cytotoxicity against human SK-MEL-2 cells assessed as cellular growth at 10 uM by SRB assay
[33] = tested on: DU-145; assay: Cytotoxicity against human DU145 cells assessed as cellular growth at 10 uM by SRB assay
[34] = tested on: HCT-15; assay: Cytotoxicity against human HCT15 cells assessed as cellular growth at 10 uM by SRB assay
[35] = tested on: RXF 393; assay: Cytotoxicity against human RXF393 cells assessed as cellular growth at 10 uM by SRB assay
[36] = tested on: COLO 205; assay: Cytotoxicity against human COLO205 cells assessed as cellular growth at 10 uM by SRB assay
[37] = tested on: SNB-75; assay: Cytotoxicity against human SNB75 cells assessed as cellular growth at 10 uM by SRB assay
[38] = tested on: UACC-62; assay: Cytotoxicity against human UACC62 cells assessed as cellular growth at 10 uM by SRB assay
[39] = tested on: MDA-MB-468; assay: Cytotoxicity against human MDA-MB-468 cells assessed as cellular growth at 10 uM by SRB assay
[40] = tested on: SF-268; assay: Cytotoxicity against human SF268 cells assessed as cellular growth at 10 uM by SRB assay
[41] = tested on: Hs-578T; assay: Cytotoxicity against human Hs578T cells assessed as cellular growth at 10 uM by SRB assay
[42] = tested on: NCI-H460; assay: Cytotoxicity against human NCI-H460 cells assessed as cellular growth at 10 uM by SRB assay
[43] = tested on: HCC 2998; assay: Cytotoxicity against human HCC2998 cells assessed as cellular growth at 10 uM by SRB assay
[44] = tested on: SNB-19; assay: Cytotoxicity against human SNB19 cells assessed as cellular growth at 10 uM by SRB assay
[45] = tested on: EKVX; assay: Cytotoxicity against human EKVX cells assessed as cellular growth at 10 uM by SRB assay
[46] = tested on: UACC-257; assay: Cytotoxicity against human UACC257 cells assessed as cellular growth at 10 uM by SRB assay
[47] = tested on: ACHN; assay: Cytotoxicity against human ACHN cells assessed as cellular growth at 10 uM by SRB assay
[48] = tested on: NCI-H522; assay: Cytotoxicity against human NCI-H522 cells assessed as cellular growth at 10 uM by SRB assay
[49] = tested on: 786-0; assay: Cytotoxicity against human 786-0 cells assessed as cellular growth at 10 uM by SRB assay
[50] = tested on: SR; assay: Cytotoxicity against human SR cells assessed as cellular growth at 10 uM by SRB assay
[51] = tested on: HL-60(TB); assay: Cytotoxicity against human HL-60(TB) cells assessed as cellular growth at 10 uM by SRB assay
[52] = tested on: SN12C; assay: Cytotoxicity against human SN12C cells assessed as cellular growth at 10 uM by SRB assay
[53] = tested on: OVCAR-5; assay: Cytotoxicity against human OVCAR5 cells assessed as cellular growth at 10 uM by SRB assay
[54] = tested on: HOP-62; assay: Cytotoxicity against human HOP62 cells assessed as cellular growth at 10 uM by SRB assay
[55] = tested on: LOX IMVI; assay: Cytotoxicity against human LOXIMVI cells assessed as cellular growth at 10 uM by SRB assay
[56] = tested on: U-251; assay: Cytotoxicity against human U251 cells assessed as cellular growth at 10 uM by SRB assay
[57] = tested on: SK-OV-3; assay: Cytotoxicity against human SKOV3 cells assessed as cellular growth at 10 uM by SRB assay
[58] = tested on: IGROV-1; assay: Cytotoxicity against human IGROV1 cells assessed as cellular growth at 10 uM by SRB assay

CC1(C)CC(=O)c2cc3c(N)c(C(=O)Nc4ccc(F)cc4)sc3nc2C1
Activity [1]: 113.65%
Activity [2]: 99.04%
Activity [3]: 110.83%
Activity [4]: 96.07%
Activity [5]: 112.36%
Activity [6]: 105.88%
Activity [7]: 105.49%
Activity [8]: 106.24%
Activity [9]: 102.68%
Activity [10]: 114.92%
Activity [11]: 104.25%
Activity [12]: 88.4%
Activity [13]: 103.15%
Activity [14]: 119.15%
Activity [15]: 106.71%
Activity [16]: 105.13%
Activity [17]: 115.29%
Activity [18]: 111.85%
Activity [19]: 116.52%
Activity [20]: 98.34%
Activity [21]: 121.66%
Activity [22]: 103.3%
Activity [23]: 102%
Activity [24]: 110.47%
Activity [25]: 107.91%
Activity [26]: 110.56%
Activity [27]: 117.81%
Activity [28]: 111.5%
Activity [29]: 108.67%
Activity [30]: 121.48%
Activity [31]: 87.2%
Activity [32]: 122.76%
Activity [33]: 122.42%
Activity [34]: 100.72%
Activity [35]: 108.89%
Activity [36]: 133.12%
Activity [37]: 114.82%
Activity [38]: 119.59%
Activity [39]: 112.64%
Activity [40]: 124.1%
Activity [41]: 111.09%
Activity [42]: 104.48%
Activity [43]: 105.43%
Activity [44]: 131.09%
Activity [45]: 100.32%
Activity [46]: 107.39%
Activity [47]: 112.82%
Activity [48]: 102.43%
Activity [49]: 104.75%
Activity [50]: 111.31%
Activity [51]: 115.83%
Activity [52]: 122.37%
Activity [53]: 92.85%
Activity [54]: 114.29%
Activity [55]: 102.36%
Activity [56]: 101.59%
Activity [57]: 109.93%
Activity [58]: 119.45%

Cc1ccc(NC(=O)c2sc3nc4c(cc3c2N)C(=O)CCC4)cc1Cl
Activity [1]: 108.49%
Activity [2]: 101.61%
Activity [3]: 109.22%
Activity [4]: 102.38%
Activity [5]: 113.04%
Activity [6]: 100.84%
Activity [7]: 102.05%
Activity [8]: 112.63%
Activity [9]: 101.89%
Activity [10]: 105.04%
Activity [11]: 103.82%
Activity [12]: 79.97%
Activity [13]: 99.15%
Activity [14]: 110.67%
Activity [15]: 92.98%
Activity [16]: 96.53%
Activity [17]: 115.57%
Activity [18]: 114.66%
Activity [19]: 112.49%
Activity [20]: 85.93%
Activity [21]: 107.73%
Activity [22]: 104.81%
Activity [23]: 100.21%
Activity [24]: 103.74%
Activity [25]: 104.3%
Activity [26]: 97.53%
Activity [27]: 112.77%
Activity [28]: 105.09%
Activity [29]: 103.45%
Activity [30]: 121.85%
Activity [31]: 97.9%
Activity [32]: 112.11%
Activity [33]: 108.78%
Activity [34]: 97.31%
Activity [35]: 117.2%
Activity [36]: 127.7%
Activity [37]: 110.07%
Activity [38]: 108.17%
Activity [39]: 104.98%
Activity [40]: 115.11%
Activity [41]: 112.53%
Activity [42]: 106.36%
Activity [43]: 102.57%
Activity [44]: 114.43%
Activity [45]: 86.19%
Activity [46]: 95.07%
Activity [47]: 109.05%
Activity [48]: 96.14%
Activity [49]: 103.81%
Activity [50]: 105.35%
Activity [51]: 105.82%
Activity [52]: 119.21%
Activity [53]: 100.98%
Activity [54]: 110.02%
Activity [55]: 99.16%
Activity [56]: 97.87%
Activity [57]: 113.94%
Activity [58]: 105.54%
